From publication PMC7069944, “Amino acid levels determine metabolism and CYP450 function of hepatocytes and hepatoma cell lines” (Nature Communications, 2020)
Several values for one entry are separate records, joined by “and”; a condition that tells them apart may be missing. Equal entries are not always repeated. Where two headings read alike, the source gives them in different places.

Columns and labels:
[1] = tested on: Co-culture of PHHs and fibroblasts; parameters: method as in ref 4 (a number printed in a supplementary file, which may have a reference list of its own: not looked up in the article's list); conditions: 24h, ATP; cited from earlier work
Rat hepatocytes = tested on: Rat hepatocytes; parameters: method as in ref 17 (a number printed in a supplementary file, which may have a reference list of its own: not looked up in the article's list); conditions: 24h, MTT; cited from earlier work
[2] = tested on: Co-culture of endothelial cells and mouse hepatocytes; parameters: method as in ref 12 (a number printed in a supplementary file, which may have a reference list of its own: not looked up in the article's list); conditions: 36h, Cell count; cited from earlier work
PHHs = assay: Single-exposure toxicity, Hoechst/DRAQ7 live cell number, PHH 12 h; conditions: Homo sapiens, read-out: IC50 single exposure, Mean
Method: (§4) PSCs were differentiated in a 384-well format. Cells were treated with 14 different concentrations of compounds in 6 repeats. As a negative control, 41 wells were left untreated. HepG2 were seeded at 40,000 cells per well. For control conditions, HepG2 were exposed after 2 days of culture. […] Cells were fixed with 4% PFA. Imaging was done using an Operetta High-Content Imaging System (Perkin Elmer) and image analysis was performed using Harmony software (Perkin Elmer). […] As a positive control, 1 donor of PHHs was seeded at 10,000 cells per well. Drugs were administrated after 8 h of attachment.

PHH = tested on: PHH; parameters: method as in ref 15 (a number printed in a supplementary file, which may have a reference list of its own: not looked up in the article's list); conditions: 24h, ALT release; cited from earlier work
[3] = tested on: HC6X in the H9-ESC background; assay: Single-exposure toxicity, Hoechst/DRAQ7 live cell number, HC6X (H9-ESC); conditions: for IC50: Homo sapiens
Method: as §4

HLCs = assay: Single-exposure toxicity, Hoechst/DRAQ7 live cell number, HLCs
Method: as §4

[4] = tested on: cells cultured in AAGLY medium; assay: Single-exposure toxicity, summary value of this study (Boon et al); assay type: cell-based; conditions: Homo sapiens, single 24 h exposure
Method: To evaluate the ability to predict hepatotoxicity, we adapted the differentiation assays to a 384-well format. […] As a readout, we evaluated cell viability by resazurin conversion and correlated the results to therapeutic doses (Cmax values).
PSCs were differentiated in a 384-well format. […] As a negative control, 41 wells were left untreated. HepG2 were seeded at 40,000 cells per well. […] Cells were fixed with 4% PFA. […] Drugs were administrated after 8 h of attachment.

Spheroid of PHHs = tested on: Spheroid of PHHs; parameters: method as in ref 3 (a number printed in a supplementary file, which may have a reference list of its own: not looked up in the article's list); conditions: 48h, ATP; cited from earlier work
HepG2 = assay: Single-exposure toxicity, Hoechst/DRAQ7 live cell number, HepG2; conditions: for IC50 single exposure, Mean: HepG2 CTL D7; for IC50: Homo sapiens
Method: as §4

[5] = tested on: HC6X in the BJ1-iPSC background; assay: Single-exposure toxicity, Hoechst/DRAQ7 live cell number, HC6X (BJ1-iPSC); conditions: Homo sapiens
Method: as §4

Cryopreserved PHH = tested on: Cryopreserved PHH; parameters: method as in ref 16 (a number printed in a supplementary file, which may have a reference list of its own: not looked up in the article's list); conditions: 48h, ATP; cited from earlier work
CYP3A4 [6] = assay: qRT-PCR CYP3A4 expression in HepG2; assay type: cell-based, human
Method: AA supplementation was accomplished through the addition of MEM Non-Essential Amino Acids Solution (100 × ) and MEM Amino Acids Solution (50 × ) (Thermo Scientific) to the culture medium. For AA1, AA2, and AA3 medium, we added respectively 2 ml, 8 ml, and 16 ml of non-essential AA solution and 1 ml, 4 ml, and 8 ml of essential AA solution per 100 ml of LDM, with or without glucose. Culture medium was then made PH neutral through the addition of NaOH. […] PSC derived HLCs were differentiated in LDM until D12. AA supplementation (AA1, AA2 and AA3) was performed from day 12 until day 20, 30 or 40 of differentiation. […] HepG2, HUH7.5, Hep3B, HHL5, and HEK293 cells were maintained in DMEM supplemented with 10% fetal bovine serum as shown in Supplementary Table 4. AA supplementation consisted of addition of 16 ml of non-essential AA mix and 8 ml of essential AA mix per 100 ml of medium and a further addition of 20 g/l of any of the single AAs. […] PHHs were maintained in a medium composition that was based on WE as detailed in ref. [67].
RNA extraction was performed using the GenElute Mammalian Total RNA Miniprep Kit (Sigma-Aldrich). Then, genomic DNA was eliminated using the On-Column DNase I Digestion kit (Sigma-Aldrich). Last, 1 µg of RNA was transcribed to cDNA using the Superscript III First-Strand synthesis (Invitrogen). Gene expression analysis was performed using the Platinum SYBR green qPCR supermix-UDG kit (Invitrogen) in a ViiA 7 Real-Time PCR instrument (Thermo Scientific, Waltham, MA). The sequences of all used qRT-PCR primers are listed in Supplementary Table 6. Of these, ribosomal protein L19 (RPL19) was used as a housekeeping gene for normalization.

CYP3A4 [7] = molecular target: CYP3A4 (Homo sapiens, UniProt P08684)
Method: (§1) Comparative CYP450 biotransformation studies were performed to assess functionality across a number of gold standard primary hepatocyte models. Cryopreserved PHHs were obtained from a single donor (Lonza, Breda, The Netherlands) or pooled donors (Thermo Scientific, Merelbeke, Belgium). Upon thawing, cell suspensions (0.5 million cells/ml) were prepared in WE medium using 24-well plates (0.5 ml/well) on an orbital shaker and metabolization activity was assessed following a 15 min equilibration period. Human Hepatopac® plates were obtained from Ascendance Biotechnology (Ascendance Biotechnology, Boston USA) and cultures were maintained following instructions of the provider. Spheroid cultures were generated in-house as essentially described by Bell et al.[42].
(§2) Finally, the system was re-equilibrated at 60% (A)/40% (B) for an additional 0.7 min. Total run time was 3.8 min and 2 µl aliquots were injected onto the system for analysis.
(§3) All data collection, processing, and analysis was performed with Analyst® software (v1.6.2. SCIEX).

CYP3A4 [8] = conditions: HepG2 in AA3+GLY medium with rapamycin
Method: Protein amount was measured using a pierce BCA protein assay kit (Thermo Scientific).

CYP2D6 = CYP2D6 (Homo sapiens, UniProt P10635); assay: Drug biotransformation cocktail: dextromethorphan
Method: as §1, §2, §3

[9] = read-out: IC50 single exposure, Mean, H9 HC6X AAGLY D40
[10] = read-out: IC50 single exposure, Mean, H9 HC6X AAGLY D50
[11] = HepG2, read-out: IC50 single exposure, Mean, HepG2 AAGLY D30
[12] = HepG2, read-out: IC50 single exposure, Mean, HepG2 AAGLY D40
[13] = read-out: IC50 single exposure, Mean, BJ1 HC6X AAGLY D40
[14] = read-out: IC50 single exposure, Mean, BJ1 HC6X AAGLY D50
[15] = single amino acid supplementation, relative to CTL (CTL values equal HepG2 D7 CTL)

Sequence of CYP3A4 (Homo sapiens, UniProt P08684) (P08684 whole entry): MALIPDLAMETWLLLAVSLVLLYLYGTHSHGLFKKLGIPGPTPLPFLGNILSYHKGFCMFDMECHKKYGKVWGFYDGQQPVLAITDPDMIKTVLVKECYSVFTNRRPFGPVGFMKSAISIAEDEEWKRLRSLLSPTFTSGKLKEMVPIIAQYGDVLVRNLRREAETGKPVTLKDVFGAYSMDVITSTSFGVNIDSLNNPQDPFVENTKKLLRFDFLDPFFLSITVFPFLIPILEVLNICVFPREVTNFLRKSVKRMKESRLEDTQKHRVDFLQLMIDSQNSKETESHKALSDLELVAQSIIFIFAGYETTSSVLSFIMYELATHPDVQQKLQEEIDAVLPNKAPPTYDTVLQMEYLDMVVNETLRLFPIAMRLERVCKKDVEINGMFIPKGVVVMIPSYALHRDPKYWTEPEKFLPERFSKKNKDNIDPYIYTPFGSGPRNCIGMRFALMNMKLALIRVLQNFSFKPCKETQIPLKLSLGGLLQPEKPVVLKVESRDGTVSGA
Sequence of CYP2D6 (P10635 whole entry): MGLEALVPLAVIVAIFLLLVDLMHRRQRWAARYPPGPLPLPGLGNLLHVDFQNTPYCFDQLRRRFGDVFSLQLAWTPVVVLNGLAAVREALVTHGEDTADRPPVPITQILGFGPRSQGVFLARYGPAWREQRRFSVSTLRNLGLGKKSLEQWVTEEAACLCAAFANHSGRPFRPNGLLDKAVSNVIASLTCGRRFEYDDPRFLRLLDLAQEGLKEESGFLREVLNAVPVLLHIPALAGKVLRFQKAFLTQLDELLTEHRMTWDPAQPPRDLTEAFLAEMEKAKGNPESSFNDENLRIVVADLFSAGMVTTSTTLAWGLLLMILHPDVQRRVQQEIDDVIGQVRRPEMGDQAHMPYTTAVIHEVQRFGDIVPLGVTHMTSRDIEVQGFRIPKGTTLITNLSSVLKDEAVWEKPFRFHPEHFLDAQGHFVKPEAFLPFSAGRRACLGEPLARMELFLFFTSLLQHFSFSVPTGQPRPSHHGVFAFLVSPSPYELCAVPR

## CC(=O)Nc1ccc(O)cc1 [APAP, acetaminophen]
[1]
  IC50: 5.5 mM
Rat hepatocytes
  IC50: 7.6 mM
[2]
  IC50: 7 mM
PHHs
  IC50: 13.3 mM
PHH
  IC50: ~10 mM
[3]; HC6X cultured in basal medium
  toxicity after single administration: no toxicity
[3]; [9]
  IC50: 12.1 mM
[3]; [10]
  IC50: 9.91 mM
HLCs; H9 HLC AAGLY D40
  IC50 single exposure, Mean: No toxicity
HLCs; H9 HLC LDM D40
  IC50 single exposure, Mean: No toxicity
HLCs; HLC cultured in basal medium
  toxicity after single administration: no toxicity
[4]
  IC50: 10 mM
Spheroid of PHHs
  IC50: 10 mM
HepG2
  IC50 single exposure, Mean: no toxicity
HepG2; HepG2 cultured in basal medium
  toxicity after single administration: no toxicity
HepG2; [11]
  IC50: 11.9 mM
HepG2; [12]
  IC50: 12 mM
[5]; [13]
  IC50: 12 mM
[5]; [14]
  IC50: 8.66 mM
Cryopreserved PHH
  IC50: > 25 mM

## N[C@@H](CO)C(=O)O [SER, serine]
CYP3A4 [6]; [15]
  Relative CYP3A4 expression: 405.322 and 582.424 and 382.821

## C[C@H](N)C(=O)O [ALA, alanine]
CYP3A4 [6]; [15]
  Relative CYP3A4 expression: 353.956 and 394.102 and 280.416

## OCc1ncc2n1-c1ccc(Cl)cc1C(c1ccccc1F)=NC2 [1-OH midazolam]
CYP3A4 [7]; HepG2 AAGLY D32
  1-OH midazolam formation (drug biotransformation cocktail): 5.9655 and 7.1394 and 9.0214
CYP3A4 [7]; Hepatopac
  1-OH midazolam formation (drug biotransformation cocktail): 23.2481 and 33.0328 and 45.6546
CYP3A4 [7]; PHH1
  1-OH midazolam formation (drug biotransformation cocktail): 5.4616 and 6.486

## CO[C@H]1C[C@@H]2CC[C@@H](C)[C@@](O)(O2)C(=O)C(=O)N2CCCC[C@H]2C(=O)O[C@H]([C@H](C)C[C@@H]2CC[C@@H](O)[C@H](OC)C2)CC(=O)[C@H](C)/C=C(\C)[C@@H](O)[C@@H](OC)C(=O)[C@H](C)C[C@H](C)/C=C/C=C/C=C/1C [rapamycin]
CYP3A4 [8]
  effect on AA-mediated induction of CYP3A4: blocked the induction of CYP3A4
CYP3A4 [6]; HepG2 AAGLY D30 with RAPA
  Relative CYP3A4 expression: 1.244 and 1.301 and 1.514

## C=C(C)[C@H]1Cc2c(ccc3c2O[C@@H]2COc4cc(OC)c(OC)cc4[C@@H]2C3=O)O1 [rotenone]
PHHs
  IC50: 1.28e-06 mM
[3]; [9]
  IC50: 8.28e-06 mM
[3]; [10]
  IC50: 4.2e-06 mM
HLCs; H9 HLC LDM D40
  IC50 single exposure, Mean: No toxicity
HLCs; Homo sapiens, read-out: IC50 single exposure, Mean
  IC50: 5.39 nM
HepG2
  IC50 single exposure, Mean: No toxicity
HepG2; [11]
  IC50: 8.83e-07 mM
HepG2; [12]
  IC50: 2.51e-06 mM
[5]; [13]
  IC50: 2.56e-06 mM
[5]; [14]
  IC50: 7.5e-06 mM

## O=C(O)[C@@H]1CCCN1 [PRO, proline]
CYP3A4 [6]; [15]
  Relative CYP3A4 expression: 252.463 and 338.714 and 412.836

## Cc1ncc2n1-c1ccc(Cl)cc1C(c1ccccc1F)=NC2 [midazolam]
CYP3A4 [7]; HepG2 AAGLY D32 and HC6X AAGLY D40, single exposure
  midazolam biotransformation compared with PHHs: equal to that of PHHs

## COc1ccc2c(c1)[C@]13CCCC[C@@H]1[C@H](C2)N(C)CC3 [Dextrometrophan]
CYP2D6; HC6X LDM D40
  Dextrometrophan biotransformation (cocktail): 0
CYP2D6; HepG2 AAGLY D32
  Dextrometrophan biotransformation (cocktail): 0
CYP2D6; HepG2 CTL D4
  Dextrometrophan biotransformation (cocktail): 0
CYP2D6; HepaRG diff D7
  Dextrometrophan biotransformation (cocktail): 0
CYP2D6; Hepatopac
  Dextrometrophan biotransformation (cocktail): 0.5629 and 0.7098 and 0.9714
CYP2D6; PHH1
  Dextrometrophan biotransformation (cocktail): 15.8656 and 14.7 and 17.4198

## OCc1ncc2n1-c1ccc(Cl)cc1C(c1ccccc1F)=NC2 [10H-midazolam]
CYP3A4 [7]; HC6X AAGLY D40, D46
  Stable 10H-midazolam metabolisation rate: 371.429 ng/h/100 000 cells and 443.182 ng/h/100 000 cells and 446.97 ng/h/100 000 cells
CYP3A4 [7]; HC6X AAGLY D40, D48
  Stable 10H-midazolam metabolisation rate: 353.788 ng/h/100 000 cells and 537.879 ng/h/100 000 cells and 462.121 ng/h/100 000 cells
CYP3A4 [7]; HepG2 AAGLY D30, column head D40
  Stable 10H-midazolam metabolisation rate: 79.0741 ng/h/100 000 cells and 82.3438 ng/h/100 000 cells and 89.7887 ng/h/100 000 cells
CYP3A4 [7]; HepG2 AAGLY D30, column head D42
  Stable 10H-midazolam metabolisation rate: 185 ng/h/100 000 cells and 122.333 ng/h/100 000 cells and 146.406 ng/h/100 000 cells
CYP3A4 [7]; HepG2 AAGLY D30, column head D46
  Stable 10H-midazolam metabolisation rate: 133.654 ng/h/100 000 cells and 137.308 ng/h/100 000 cells and 133.846 ng/h/100 000 cells
CYP3A4 [7]; HepG2 AAGLY D30, column head D48
  Stable 10H-midazolam metabolisation rate: 133.333 ng/h/100 000 cells and 151.667 ng/h/100 000 cells and 136.296 ng/h/100 000 cells
CYP3A4 [7]; HepG2 AAGLY D30, column head D50
  Stable 10H-midazolam metabolisation rate: 105 ng/h/100 000 cells and 107.963 ng/h/100 000 cells and 103.75 ng/h/100 000 cells
